# Assay results as given in US6677460B1, “Aromatic carboxylic acid bicyclic sulfur compounds” (Idemitsu Kosan Company, Limited, priority 1993, dated 2004).
# Assays:
# Type in all cases: in vivo
# Conditions in all cases: 300 g a.i./hectare, 20th day after spraying
# slender amaranth [1] = experiment: Upland soil treatment test (8)
# Procedure: (§1) 90 Parts by weight of the above carrier and 10 parts by weight of each of Compounds obtained in the above Preparation Examples were uniformly pulverized and mixed to obtain herbicides. Further, for Herbicide Comparative Examples, comparative herbicides were prepared by uniformly pulverizing and mixing 90 parts by weight of the above carrier and 10 parts by weight of each of the following Compounds x, y, A, B and C.
# (§2) (8) Biological Test (Upland Soil Treatment Test, Herbicide Examples 48-52 and Herbicide Comparative Examples 13 and 14)
# (§3) Seeds of weeds such as large crabgrass, barnyard brass, green foxtail, cocklebur, velvetleaf and slender amarnth and seeds of corn, wheat and barley were sown in 1/5,000-are Wagner pots filled with upland soil, and covert with upland soil. Then, a predetermined amount of the herbicide prepared in the above (1) was suspended in water and uniformly sprayed onto the soil surface. Thereafter, the plant were grown in the greenhouse, and on the 20th day after the spraying treatment, the herbicide was evaluated for herbicidal efficacy.
# (§4) The herbicidal efficacy and the phytotoxicity to crops are shown on the basis of the ratings described in (2) Foliar treatment test.
# cocklebur [2] = experiment: Upland soil treatment test (8)
# Procedure: as §1, §2, §3, §4
# large crabgrass [3] = experiment: Upland soil treatment test (8)
# Procedure: as §1, §2, §3, §4
# barnyard grass = experiment: Upland soil treatment test (8)
# Procedure: as §1, §2, §3, §4
# green foxtail [4] = experiment: Upland soil treatment test (8)
# Procedure: as §1, §2, §3, §4
# velvetleaf [5] = experiment: Upland soil treatment test (8)
# Procedure: as §1, §2, §3, §4
# slender amaranth [6] = experiment: Foliar treatment test (7)
# Procedure: as §1
# (§5) (7) Biological Test (Foliar Treatment Test, Herbicide Examples 43-47 and Comparative Examples 11 and 12)
# as §3, with “barnyardgrass,” for “barnyard brass,”, “amaranth” for “amarnth”, “covered” for “covert”, “The seeds were grown in a greenhouse, and at the stage of 1 to 2 leaves of these plants,” for “Then,”, “leaf and stalk portions at a rate of 200 liter/10 ares.” for “the soil surface.”, “plants” for “plant”
# (§6) The herbicidal efficacy and phytotoxcity to crops were shown on the basis of the following ratings.
# (§7) The ratio of remaining plant weight to non-treated was determined on the basis of the ratio of remaining plant weight to non-treated=(remaining plant weight in treated plot/remaining plant weight in non-treated plot)×100. This is also applicable to biological tests hereinafter.
# cocklebur [7] = experiment: Foliar treatment test (7)
# Procedure: as §1, §5
# as §3, with “barnyardgrass,” for “barnyard brass,”, “amaranth” for “amarnth”, “covered” for “covert”, “The seeds were grown in a greenhouse, and at the stage of 1 to 2 leaves of these plants,” for “Then,”, “leaf and stalk portions at a rate of 200 liter/10 ares.” for “the soil surface.”, “plants” for “plant”
# as §6, §7
# large crabgrass [8] = experiment: Foliar treatment test (7)
# Procedure: as §1, §5
# as §3, with “barnyardgrass,” for “barnyard brass,”, “amaranth” for “amarnth”, “covered” for “covert”, “The seeds were grown in a greenhouse, and at the stage of 1 to 2 leaves of these plants,” for “Then,”, “leaf and stalk portions at a rate of 200 liter/10 ares.” for “the soil surface.”, “plants” for “plant”
# as §6, §7
# barnyardgrass = experiment: Foliar treatment test (7)
# Procedure: as §1, §5
# as §3, with “barnyardgrass,” for “barnyard brass,”, “amaranth” for “amarnth”, “covered” for “covert”, “The seeds were grown in a greenhouse, and at the stage of 1 to 2 leaves of these plants,” for “Then,”, “leaf and stalk portions at a rate of 200 liter/10 ares.” for “the soil surface.”, “plants” for “plant”
# as §6, §7
# green foxtail [9] = experiment: Foliar treatment test (7)
# Procedure: as §1, §5
# as §3, with “barnyardgrass,” for “barnyard brass,”, “amaranth” for “amarnth”, “covered” for “covert”, “The seeds were grown in a greenhouse, and at the stage of 1 to 2 leaves of these plants,” for “Then,”, “leaf and stalk portions at a rate of 200 liter/10 ares.” for “the soil surface.”, “plants” for “plant”
# as §6, §7
# velvetleaf [10] = experiment: Foliar treatment test (7)
# Procedure: as §1, §5
# as §3, with “barnyardgrass,” for “barnyard brass,”, “amaranth” for “amarnth”, “covered” for “covert”, “The seeds were grown in a greenhouse, and at the stage of 1 to 2 leaves of these plants,” for “Then,”, “leaf and stalk portions at a rate of 200 liter/10 ares.” for “the soil surface.”, “plants” for “plant”
# as §6, §7
# Note: ranges in brackets are in %.
SMILES,Herbicidal Efficacy slender amaranth (slender amaranth [1]),Herbicidal Efficacy cocklebur (cocklebur [2]),Herbicidal Efficacy large crabgrass (large crabgrass [3]),Herbicidal Efficacy barnyard grass (barnyard grass),Herbicidal Efficacy green foxtail (green foxtail [4]),Herbicidal Efficacy velvetleaf (velvetleaf [5]),Herbicidal Efficacy slender amaranth (slender amaranth [6]),Herbicidal Efficacy cocklebur (cocklebur [7]),Herbicidal Efficacy large crabgrass (large crabgrass [8]),Herbicidal Efficacy barnyard grass (barnyardgrass),Herbicidal Efficacy green foxtail (green foxtail [9]),Herbicidal Efficacy velvetleaf (velvetleaf [10])
"CCn1ncc(C(=O)c2cc(C)c3c(c2C)CCCS3)c1O [Compound 47-2, 5,8-dimethyl-6-(1-ethyl-5-hydroxypyrazol-4-yl)carbonylthiochroman]",5 (0),0 (81-100),1 (61-80),5 (0),4 (1-20),5 (0),5 (0),5 (0),5 (0),2 (41-60),5 (0),5 (0)
"CCn1ncc(C(=O)c2cc(C)c3c(c2C)C=CCS3)c1O [Compound 47-1, 5,8-dimethyl-6-(1-ethyl-5-hydroxypyrazol-4-yl)carbonyl-3,4-dehydrothiochroman]",5 (0),0 (81-100),0 (81-100),0 (81-100),0 (81-100),0 (81-100),0 (81-100),5 (0),0 (81-100),0 (81-100),0 (81-100),4 (1-20)
